What was measured:
[1] = test system: Glomerella cingulata; test: Fungicidal effect test against fungi causing grape ripe rot disease; conditions: Colletotrichum gloeosporioides, 72 h, read-out: growth inhibition ratio
[2] = test system: Fusarium graminearum; test: microbe, parasite or virus in culture; type: cell-based; conditions: 96 h, read-out: growth inhibition ratio
[3] = test system: Erysiphe graminis f.sp.tritici; test: Control test of wheat powdery mildew disease (sprayed young wheat seedlings); type: in vivo; conditions: Blumeria graminis, 144 h, 125 ppm by mass spray, six days after inoculation
[4] = test system: Colletotrichum acutatum; test: Fungicidal effect test against fungi causing apple anthracnose; conditions: 96 h, read-out: growth inhibition ratio
[5] = test system: Botrytis cinerea; type: cell-based; conditions: 120 h, 25 ppm by volume, Vogel medium, 20° C., five days, dark, read-out: growth inhibition ratio
[6] = test system: Botrytis cinerea; test: Control test of cucumber gray mold (sprayed young cucumber seedlings); type: in vivo; conditions: 96 h, four days after inoculation; for pest or weed control at 25 ppm: 25 ppm by mass spray; for pest or weed control at 125 ppm: 125 ppm by mass spray
Procedure: Then, the drug liquid was sprayed onto young cucumber seedlings cultivated in a nursery pot (variety “Jihai”-based, cotyledon stage), and then air-dried. […] They were left still in a moist room at 20° C. Four days after inoculation, leaves of the young cucumber seedlings were visually observed, and the control value was calculated from the lesion area ratio in accordance with the following equation. [formula]

[7] = test system: Venturia inaequalis; test: Control test of apple scab disease (sprayed young apple seedlings); type: in vivo; conditions: 125 ppm by mass spray, 12 to 14 days after inoculation

COC(=O)N(Cc1ccc(C)cc1C)NC(=O)c1c(Oc2cccc(C3CC3)c2F)nnc(Cl)c1C [b-15]
≥ 75%: inhibition of growth at 25 ppm [1] | inhibition of growth at 25 ppm [2] | pest or weed control at 125 ppm [3] | inhibition of growth at 25 ppm [4] | inhibition of growth at 25 ppm [5] | pest or weed control at 25 ppm [6] | pest or weed control at 125 ppm [6] | pest or weed control at 125 ppm [7]

COC(=O)N(Cc1ccc(C)cc1C)NC(=O)c1cc(C)ncc1Oc1cccc(C2CC2)c1F [b-16]
≥ 75%: inhibition of growth at 25 ppm [1] | inhibition of growth at 25 ppm [2] | pest or weed control at 125 ppm [3] | inhibition of growth at 25 ppm [4] | inhibition of growth at 25 ppm [5] | pest or weed control at 25 ppm [6] | pest or weed control at 125 ppm [6] | pest or weed control at 125 ppm [7]

Cc1ccc(CN(NC(=O)c2cc(C)nnc2Oc2cccc(C3CC3)c2F)C(=O)OC(C)(C)C)c(C)c1 [b-22]
≥ 75%: inhibition of growth at 25 ppm [1] | inhibition of growth at 25 ppm [2] | pest or weed control at 125 ppm [3] | inhibition of growth at 25 ppm [4] | inhibition of growth at 25 ppm [5] | pest or weed control at 25 ppm [6] | pest or weed control at 125 ppm [6] | pest or weed control at 125 ppm [7]

COC(=O)N(Cc1ccc(C)cc1C)NC(=O)c1cc(C)nnc1Oc1cccc(Cl)c1F [b-23, Methyl 2-(3-(3-chloro-2-fluorophenoxy)-6-methylpyridazine-4-carbonyl)-1-(2,4-dimethylbenzyl)hydrazine-1-carboxylate]
≥ 75%: inhibition of growth at 25 ppm [1] | inhibition of growth at 25 ppm [2] | pest or weed control at 125 ppm [3] | inhibition of growth at 25 ppm [4] | inhibition of growth at 25 ppm [5] | pest or weed control at 25 ppm [6] | pest or weed control at 125 ppm [6] | pest or weed control at 125 ppm [7]

COC(=O)N(Cc1ccc(C)cc1C)NC(=O)c1cc(Cl)nnc1Oc1cccc(C2CC2)c1F [b-28]
≥ 75%: inhibition of growth at 25 ppm [1] | inhibition of growth at 25 ppm [2] | pest or weed control at 125 ppm [3] | inhibition of growth at 25 ppm [4] | inhibition of growth at 25 ppm [5] | pest or weed control at 25 ppm [6] | pest or weed control at 125 ppm [6] | pest or weed control at 125 ppm [7]

COC(=O)N(Cc1ccc(C)cc1C)NC(=O)c1cc(C)ncc1Oc1cccc(Br)c1 [b-31]
≥ 75%: inhibition of growth at 25 ppm [1] | inhibition of growth at 25 ppm [2] | pest or weed control at 125 ppm [3] | inhibition of growth at 25 ppm [4] | inhibition of growth at 25 ppm [5] | pest or weed control at 25 ppm [6] | pest or weed control at 125 ppm [6] | pest or weed control at 125 ppm [7]

CCOC(=O)N(Cc1ccc(C)cc1C)NC(=O)c1cc(C)ncc1Oc1cccc(C2CC2)c1F [b-33]
≥ 75%: inhibition of growth at 25 ppm [1] | inhibition of growth at 25 ppm [2] | pest or weed control at 125 ppm [3] | inhibition of growth at 25 ppm [4] | inhibition of growth at 25 ppm [5] | pest or weed control at 125 ppm [6] | pest or weed control at 125 ppm [7]

COC(=O)N(Cc1ccc(Cl)cc1C)NC(=O)c1cc(C)nnc1Oc1cccc(C2CC2)c1F [b-34]
≥ 75%: inhibition of growth at 25 ppm [1] | inhibition of growth at 25 ppm [2] | pest or weed control at 125 ppm [3] | inhibition of growth at 25 ppm [4] | inhibition of growth at 25 ppm [5] | pest or weed control at 25 ppm [6] | pest or weed control at 125 ppm [6] | pest or weed control at 125 ppm [7]

COC(=O)N(Cc1ccc(C)cc1C)NC(=O)c1cc(C)nnc1Oc1cccc(C(F)(F)F)c1F [b-36]
≥ 75%: inhibition of growth at 25 ppm [1] | inhibition of growth at 25 ppm [2] | pest or weed control at 125 ppm [3] | inhibition of growth at 25 ppm [4] | inhibition of growth at 25 ppm [5] | pest or weed control at 25 ppm [6] | pest or weed control at 125 ppm [6] | pest or weed control at 125 ppm [7]

COC(=O)N(Cc1ccc(C)cc1C)NC(=O)c1cc(C)nnc1Oc1cccc(Br)c1F [b-38]
≥ 75%: inhibition of growth at 25 ppm [1] | inhibition of growth at 25 ppm [2] | pest or weed control at 125 ppm [3] | inhibition of growth at 25 ppm [4] | inhibition of growth at 25 ppm [5] | pest or weed control at 25 ppm [6] | pest or weed control at 125 ppm [6] | pest or weed control at 125 ppm [7]

COC(=O)N(Cc1ccc(C)cc1C)NC(=O)c1nc(C)ncc1Oc1cccc(C2CC2)c1F [b-42, Methyl 2-(5-(3-cyclopropyl-2-fluorophenoxy)-2-methylpyrimidine-4-carbonyl)-1-(2,4-dimethylbenzyl)hydrazine-1-carboxylate]
≥ 75%: inhibition of growth at 25 ppm [1] | inhibition of growth at 25 ppm [2] | pest or weed control at 125 ppm [3] | inhibition of growth at 25 ppm [4] | inhibition of growth at 25 ppm [5] | pest or weed control at 25 ppm [6] | pest or weed control at 125 ppm [6] | pest or weed control at 125 ppm [7]

CCOC(=O)N(Cc1ccc(C)cc1C)NC(=O)c1nc(C)ncc1Oc1cccc(C2CC2)c1F [b-43]
≥ 75%: inhibition of growth at 25 ppm [1] | inhibition of growth at 25 ppm [2] | pest or weed control at 125 ppm [3] | inhibition of growth at 25 ppm [4] | inhibition of growth at 25 ppm [5] | pest or weed control at 25 ppm [6] | pest or weed control at 125 ppm [6] | pest or weed control at 125 ppm [7]

COC(=O)N(Cc1ccc(Br)cc1C)NC(=O)c1cc(C)nnc1Oc1cccc(C2CC2)c1F [b-45]
≥ 75%: inhibition of growth at 25 ppm [1] | inhibition of growth at 25 ppm [2] | pest or weed control at 125 ppm [3] | inhibition of growth at 25 ppm [4] | inhibition of growth at 25 ppm [5] | pest or weed control at 25 ppm [6] | pest or weed control at 125 ppm [6] | pest or weed control at 125 ppm [7]

COC(=O)N(Cc1ccc(C)cc1Cl)NC(=O)c1cc(C)nnc1Oc1cccc(C2CC2)c1F [b-46]
≥ 75%: inhibition of growth at 25 ppm [1] | inhibition of growth at 25 ppm [2] | pest or weed control at 125 ppm [3] | inhibition of growth at 25 ppm [4] | inhibition of growth at 25 ppm [5] | pest or weed control at 25 ppm [6] | pest or weed control at 125 ppm [6] | pest or weed control at 125 ppm [7]

COC(=O)N(Cc1ccc(C)cc1C)NC(=O)c1cc(C)nnc1Oc1cccc(C(F)(F)F)c1 [b-53]
≥ 75%: inhibition of growth at 25 ppm [1] | inhibition of growth at 25 ppm [2] | pest or weed control at 125 ppm [3] | inhibition of growth at 25 ppm [4] | inhibition of growth at 25 ppm [5] | pest or weed control at 25 ppm [6] | pest or weed control at 125 ppm [6] | pest or weed control at 125 ppm [7]

COC(=O)N(Cc1ccc(C)cc1C)NC(=O)c1cc(C)nnc1Oc1cccc(Br)c1 [b-55]
≥ 75%: inhibition of growth at 25 ppm [1] | inhibition of growth at 25 ppm [2] | pest or weed control at 125 ppm [3] | inhibition of growth at 25 ppm [4] | inhibition of growth at 25 ppm [5] | pest or weed control at 25 ppm [6] | pest or weed control at 125 ppm [6] | pest or weed control at 125 ppm [7]

COC(=O)N(Cc1ccc(C)cc1C)NC(=O)c1cc(Br)ncc1Oc1cccc(C2CC2)c1F [b-67]
≥ 75%: inhibition of growth at 25 ppm [1] | inhibition of growth at 25 ppm [2] | pest or weed control at 125 ppm [3] | inhibition of growth at 25 ppm [4] | inhibition of growth at 25 ppm [5] | pest or weed control at 25 ppm [6] | pest or weed control at 125 ppm [6] | pest or weed control at 125 ppm [7]

COCOc1ccc(CN(NC(=O)c2cc(C)ncc2Oc2cccc(C3CC3)c2F)C(=O)OC)c(C)c1 [b-74]
≥ 75%: inhibition of growth at 25 ppm [1] | inhibition of growth at 25 ppm [2] | pest or weed control at 125 ppm [3] | inhibition of growth at 25 ppm [4] | inhibition of growth at 25 ppm [5] | pest or weed control at 25 ppm [6] | pest or weed control at 125 ppm [6] | pest or weed control at 125 ppm [7]

COC(=O)N(Cc1ccc(Cl)cc1Cl)NC(=O)c1cc(C)ncc1Oc1cccc(C2CC2)c1F [b-75]
≥ 75%: inhibition of growth at 25 ppm [1] | inhibition of growth at 25 ppm [2] | pest or weed control at 125 ppm [3] | inhibition of growth at 25 ppm [4] | inhibition of growth at 25 ppm [5] | pest or weed control at 25 ppm [6] | pest or weed control at 125 ppm [6] | pest or weed control at 125 ppm [7]

COC(=O)N(Cc1ccc(Br)cc1C)NC(=O)c1cc(C)ncc1Oc1cccc(C2CC2)c1F [b-76]
≥ 75%: inhibition of growth at 25 ppm [1] | inhibition of growth at 25 ppm [2] | pest or weed control at 125 ppm [3] | inhibition of growth at 25 ppm [4] | inhibition of growth at 25 ppm [5] | pest or weed control at 25 ppm [6] | pest or weed control at 125 ppm [6] | pest or weed control at 125 ppm [7]

COC(=O)N(Cc1ccc(Cl)cc1C)NC(=O)c1cc(C)ncc1Oc1cccc(C2CC2)c1F [b-77]
≥ 75%: inhibition of growth at 25 ppm [1] | inhibition of growth at 25 ppm [2] | pest or weed control at 125 ppm [3] | inhibition of growth at 25 ppm [4] | inhibition of growth at 25 ppm [5] | pest or weed control at 25 ppm [6] | pest or weed control at 125 ppm [6] | pest or weed control at 125 ppm [7]

COC(=O)N(Cc1ccc(C)cc1C)NC(=O)c1cc(C)nnc1Oc1cccc(C2CC2)c1 [b-80]
≥ 75%: inhibition of growth at 25 ppm [1] | inhibition of growth at 25 ppm [2] | pest or weed control at 125 ppm [3] | inhibition of growth at 25 ppm [4] | inhibition of growth at 25 ppm [5] | pest or weed control at 25 ppm [6] | pest or weed control at 125 ppm [6] | pest or weed control at 125 ppm [7]

COC(=O)N(Cc1ccc(C)cc1C)NC(=O)c1cc(C)ncc1Oc1cccc(Br)c1F [b-88]
≥ 75%: inhibition of growth at 25 ppm [1] | inhibition of growth at 25 ppm [2] | pest or weed control at 125 ppm [3] | inhibition of growth at 25 ppm [4] | inhibition of growth at 25 ppm [5] | pest or weed control at 25 ppm [6] | pest or weed control at 125 ppm [6] | pest or weed control at 125 ppm [7]

Reference: patent publication US20260198493A1, “HYDRAZIDE COMPOUND AND AGRICULTURAL/HORTICULTURAL FUNGICIDE” (Nippon Soda Co., Ltd., priority 2022, published 2026)
